Source: US9611278B2 (Merck Sharp & Dohme Corp., priority 2013, dated 2017)

How the values were obtained:
[1] = biological target: T1, sGC α1/β1 heterodimer stably expressed in CHO-K1 cells (CHO-K1/sGC) (Homo sapiens, UniProt Q02108+Q02153); experiment: Cell-based sGC Functional Assay (CASA Assay); conditions: for Emax: CHO-K1, activation as percentage of maximum cGMP production of Compound A (set to 100%), read-out: % Act.; for EC50: inflection point of cGMP generation in CHO-K1/sGC cells, 4P fit, 1 hr at 37° C., read-out: IP
T1 construct: expressed in transfected cells
T1 sequence (Q02108 1-690): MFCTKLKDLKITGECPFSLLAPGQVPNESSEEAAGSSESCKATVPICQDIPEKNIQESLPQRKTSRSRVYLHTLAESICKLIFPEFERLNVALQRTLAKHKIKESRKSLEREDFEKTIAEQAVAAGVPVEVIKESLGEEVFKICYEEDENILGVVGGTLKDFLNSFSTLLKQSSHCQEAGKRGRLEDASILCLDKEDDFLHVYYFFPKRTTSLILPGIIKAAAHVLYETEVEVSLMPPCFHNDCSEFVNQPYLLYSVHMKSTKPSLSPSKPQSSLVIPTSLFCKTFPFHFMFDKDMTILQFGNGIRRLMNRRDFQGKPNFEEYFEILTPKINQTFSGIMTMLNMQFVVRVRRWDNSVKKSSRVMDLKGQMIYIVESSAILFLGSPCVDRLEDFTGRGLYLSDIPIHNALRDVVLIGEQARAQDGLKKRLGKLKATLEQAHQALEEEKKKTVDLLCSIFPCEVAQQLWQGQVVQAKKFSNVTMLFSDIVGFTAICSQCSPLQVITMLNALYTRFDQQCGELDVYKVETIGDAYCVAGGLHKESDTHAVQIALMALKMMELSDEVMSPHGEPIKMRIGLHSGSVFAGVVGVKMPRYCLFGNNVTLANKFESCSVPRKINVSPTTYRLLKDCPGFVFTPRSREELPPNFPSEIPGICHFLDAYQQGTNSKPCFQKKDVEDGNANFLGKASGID
T1 sequence (Q02153 1-619): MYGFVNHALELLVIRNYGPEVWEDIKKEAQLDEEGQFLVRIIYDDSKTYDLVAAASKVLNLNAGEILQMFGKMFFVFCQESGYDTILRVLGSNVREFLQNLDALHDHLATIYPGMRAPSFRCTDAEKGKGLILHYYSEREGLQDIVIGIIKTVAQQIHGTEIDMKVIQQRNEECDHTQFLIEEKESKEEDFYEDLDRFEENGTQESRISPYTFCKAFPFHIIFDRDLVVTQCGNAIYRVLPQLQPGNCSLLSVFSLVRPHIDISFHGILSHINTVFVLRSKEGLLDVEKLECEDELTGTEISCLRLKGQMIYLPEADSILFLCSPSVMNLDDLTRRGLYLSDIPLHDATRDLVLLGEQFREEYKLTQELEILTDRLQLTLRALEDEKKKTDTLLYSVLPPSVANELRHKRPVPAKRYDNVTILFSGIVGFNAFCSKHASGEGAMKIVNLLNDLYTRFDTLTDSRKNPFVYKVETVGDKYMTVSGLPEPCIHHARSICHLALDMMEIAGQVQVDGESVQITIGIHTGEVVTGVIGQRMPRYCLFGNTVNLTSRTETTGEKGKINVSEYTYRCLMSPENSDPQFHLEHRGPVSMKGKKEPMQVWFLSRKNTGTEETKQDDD
How it was run: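 CHO-K1 cells stably expressing human sGC α1/β1 were incubated with compound for 1 h at 37 °C in buffer with 0.5 mM IBMX and 2.5% DMSO, with or without 1 μM DETA-NO. Intracellular cGMP was read by HTRF and expressed as percentage of maximal activation by reference activator Compound A. Values came from a 4-parameter fit.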

[2] = system: Spontaneously hypertensive rats (SHR); experiment: Acute Efficacy in Spontaneously Hypertensive Rats (SHR); format: in vivo, rat; conditions: single oral dose
Source text: Spontaneously hypertensive rats (SHR, male, Charles River) were implanted with DSI TA11PA-C40 telemetry device (Data Sciences, Inc., St. Paul, Minn.) under isoflurane or ketamine/metomidine anesthesia. The telemetry unit catheter was inserted into the descending aorta via the femoral artery and the telemetry device was implanted subcutaneously in the left flank area. Animals were allowed to recover from surgery for 14 days before the start of any studies. Blood pressure, heart rate, and activity signals from conscious, freely moving rats were recorded continuously for 30 seconds every 10 min. On the day prior to administration of compound, a single oral dose of vehicle (10% transcutol/20% Cremophor/70% water) was administered to all animals to establish baseline control data. The blood pressure lowering efficacy of compound (PO) or vehicle was evaluated following a single oral gavage. Data were collected as hourly averages, and changes in blood pressure were calculated by subtracting control baseline data on an hourly basis. Animals were maintained on normal diet with a 12 hour light-dark cycle.
Maximum peak decreases of systolic blood pressure (SBP) in SHR at a particular P.O. dose (mpk milligrams per kilogram) for the following representative compounds are provided in Table 9. Category A=SBP in SHRs <15 mmHg; Category B=SBP in SHRs 15-25 mmHg; Category C=SBP in SHRs >25 mmHg

| Emax [1] [%] | EC50 [1] [nM] | Structure (SMILES) | Category: maximum peak decrease of systolic blood pressure (SBP) in SHR ([2]; P.O. 1 mpk) | Category: maximum peak decrease of systolic blood pressure (SBP) in SHR ([2]; P.O. 0.3 mpk) |
| --- | --- | --- | --- | --- |
| 93 | 229 | [2H]C([2H])([2H])n1ncc2c(-c3nc(N)c4c(n3)NC(=O)C4(c3cn(C)nn3)C3CC3)nc(CCC(F)(F)C(F)(F)F)nc21 (single isomer, unassigned) [Example 54, 4-Amino-5-cyclopropyl-5-(1-methyl-1H-1,2,3-triazol-4-yl)-2-(1-(methyl-d3)-6-(3,3,4,4,4-pentafluorobutyl)-1H-pyrazolo[3,4-d]pyrimidin-4-yl)-5,7-dihydro-6H-pyrrolo[2,3-d]pyrimidin-6-one] | B (Category B=SBP in SHRs 15-25 mmHg) | – |
| 118 | 251 | Cn1cc(C2(C3CC3)C(=O)Nc3nc(-c4nc(CCC(F)(F)C(F)(F)F)nc5c4cnn5C)nc(N)c32)nn1 (single isomer, unassigned) [Example 55, 4-Amino-5-cyclopropyl-5-(1-methyl-1H-1,2,3-triazol-4-yl)-2-(1-methyl-6-(3,3,4,4,4-pentafluorobutyl)-1H-pyrazolo[3,4-d]pyrimidin-4-yl)-5,7-dihydro-6H-pyrrolo[2,3-d]pyrimidin-6-one] | B (Category B=SBP in SHRs 15-25 mmHg) | – |
| 126 | 1020 | CC(C)n1cc(C2(C)C(=O)Nc3nc(-c4nc(CCC(F)(F)C(F)(F)F)nc5c4cnn5C)nc(N)c32)nn1 (single isomer, unassigned) [Example 56, 4-Amino-5-(1-isopropyl-1H-1,2,3-triazol-4-yl)-5-methyl-2-(1-methyl-6-(3,3,4,4,4-pentafluorobutyl)-1H-pyrazolo[3,4-d]pyrimidin-4-yl)-5,7-dihydro-6H-pyrrolo[2,3-d]pyrimidin-6-one] | C (Category C=SBP in SHRs >25 mmHg) | – |
| 108 | 327 | CCn1cc(C2(CC)C(=O)Nc3nc(-c4nc(CCC(F)(F)C(F)(F)F)nc5c4cnn5C)nc(N)c32)nn1 (single isomer, unassigned) [Example 66, 4-Amino-5-ethyl-5-(1-ethyl-1H-1,2,3-triazol-4-yl)-2-(1-methyl-6-(3,3,4,4,4-pentafluorobutyl)-1H-pyrazolo[3,4-d]pyrimidin-4-yl)-5,7-dihydro-6H-pyrrolo[2,3-d]pyrimidin-6-one] | B (Category B=SBP in SHRs 15-25 mmHg) | – |
| 105 | 259 | CCn1cc(C2(C)C(=O)Nc3nc(-c4nc(CCC(F)(F)C(F)(F)F)nc5c4cnn5C)nc(N)c32)nn1 (single isomer, unassigned) [Example 69, 4-Amino-5-(1-ethyl-1H-1,2,3-triazol-4-yl)-5-methyl-2-(1-methyl-6-(3,3,4,4,4-pentafluorobutyl)-1H-pyrazolo[3,4-d]pyrimidin-4-yl)-5,7-dihydro-6H-pyrrolo[2,3-d]pyrimidin-6-one] | C (Category C=SBP in SHRs >25 mmHg) | – |
| 111 | 365 | Cn1ncc2c(-c3nc(N)c4c(n3)NC(=O)C4(C)n3cnnn3)nc(CCC(F)(F)C(F)(F)F)nc21 (single isomer, unassigned) [Example 84, 4-Amino-5-methyl-2-(1-methyl-6-(3,3,4,4,4-pentafluorobutyl)-1H-pyrazolo[3,4-d]pyrimidin-4-yl)-5-(1H-tetrazol-1-yl)-5,7-dihydro-6H-pyrrolo[2,3-d]pyrimidin-6-one] | A (Category A=SBP in SHRs <15 mmHg) | – |
| 123 | 55 | Cn1ncc2c(-c3nc(N)c4c(n3)NC(=O)C4(C)c3ccc(F)cn3)nc(CCC(F)(F)C(F)(F)F)nc21 (centres unmarked) [Example 1, 4-Amino-5-(5-fluoropyridin-2-yl)-5-methyl-2-(1-methyl-6-(3,3,4,4,4-pentafluorobutyl)-1H-pyrazolo[3,4-d]pyrimidin-4-yl)-5H-pyrrolo[2,3-d]pyrimidin-6(7H)-one] | – | C (Category C=SBP in SHRs >25 mmHg) |
| 117 | 104 | Cn1ncc2c(-c3nc(N)c4c(n3)NC(=O)C4(C)c3ccc(F)cn3)nc(CC3CC(F)(F)C3)nc21 (centres unmarked) [Example 3, 4-Amino-2-(6-((3,3-difluorocyclobutyl)methyl)-1-methyl-1H-pyrazolo[3,4-d]pyrimidin-4-yl)-5-(5-fluoropyridin-2-yl)-5-methyl-5,7-dihydro-6H-pyrrolo[2,3-d]pyrimidin-6-one] | – | C (Category C=SBP in SHRs >25 mmHg) |
| 115 | 54 | Cn1ncc2c(-c3nc(N)c4c(n3)NC(=O)C4(C)c3ccc(F)cn3)nc(CCCC(F)(F)F)nc21 (centres unmarked) [Example 4, 4-Amino-5-(5-fluoropyridin-2-yl)-5-methyl-2-(1-methyl-6-(4,4,4-trifluorobutyl)-1H-pyrazolo[3,4-d]pyrimidin-4-yl)-5H-pyrrolo[2,3-d]pyrimidin-6(7H)-one] | – | B (Category B=SBP in SHRs 15-25 mmHg) |
| 157 | 225 | [2H]C([2H])([2H])n1ncc2c(-c3nc(N)c4c(n3)NC(=O)C4(C)c3noc(C)n3)nc(CCC(F)(F)C(F)(F)F)nc21 (centres unmarked) [Example 19, 4-Amino-5-methyl-5-(5-methyl-1,2,4-oxadiazol-3-yl)-2-(1-(methyl-d3)-6-(3,3,4,4,4-pentafluorobutyl)-1H-pyrazolo[3,4-d]pyrimidin-4-yl)-5,7-dihydro-6H-pyrrolo[2,3-d]pyrimidin-6-one] | C (Category C=SBP in SHRs >25 mmHg) | – |
| – | – | [2H]C([2H])([2H])n1ncc2c(-c3nc(N)c4c(n3)NC(=O)C4(c3nnc(C)o3)C3CC3)nc(CCC(F)(F)C(F)(F)F)nc21 (centres unmarked) [Example 40, 4-Amino-5-cyclopropyl-5-(5-methyl-1,3,4-oxadiazol-2-yl)-2-(1-(methyl-d3)-6-(3,3,4,4,4-pentafluorobutyl)-1H-pyrazolo[3,4-d]pyrimidin-4-yl)-5,7-dihydro-6H-pyrrolo[2,3-d]pyrimidin-6-one] | C (Category C=SBP in SHRs >25 mmHg) | – |
| 86 | 378 | Cc1nnc(C2(C)C(=O)Nc3nc(-c4nc(CCC(F)(F)C(F)(F)F)nc5c4ccn5C)nc(N)c32)o1 (centres unmarked) [Example 87, 4-Amino-5,7′-dimethyl-5-(5-methyl-1,3,4-oxadiazol-2-yl)-2′-(3,3,4,4,4-pentafluorobutyl)-5,7-dihydro-6H,7′H-[2,4′-bipyrrolo[2,3-d]pyrimidin]-6-one] | – | – |
| 109 | 715 | Cn1ccc2c(-c3nc(N)c4c(n3)NC(=O)C4(c3nnc(C4CC4)o3)C3CC3)nc(CCC(F)(F)C(F)(F)F)nc21 (centres unmarked) [Example 88, 4-Amino-5-cyclopropyl-5-(5-cyclopropyl-1,3,4-oxadiazol-2-yl)-7′-methyl-2′-(3,3,4,4,4-pentafluorobutyl)-5,7-dihydro-6H,7′H-[2,4′-bipyrrolo[2,3-d]pyrimidin]-6-one] | – | – |
